Data reported in patent US9668479B2, “Modulating germination of Paenibacillus larvae” (THE BOARD OF REGENTS OF THE NEVADA SYSTEM OF HIGHER …, priority 2013, dated 2017).
Like-named read-outs stand apart in the source and are kept apart here.

Legend:
P. larvae spores [1] = test: Inhibition of P. larvae spore germination, IC50 titration of indole analogs (Example 2); format: cell-based, Paenibacillus larvae subsp. pulvifaciens strain ATCC 49843; conditions: Paenibacillus larvae
Description: After a 15 minute incubation, the spores were treated with 3 mM L-tyrosine-3 mM uric acid. The germination rate was set to 100% for P. larvae spores germinated in the absence of inhibitor. Germination rates for other conditions were divided by the uninhibited maximum germination rate obtained with 3 mM L-tyrosine-3 mM uric acid, and are reported as percent germination. Percent germination was plotted against the inhibitor concentrations.

P. larvae cells = test: Growth of P. larvae cells in medium containing 5-chloroindole; format: cell-based, Paenibacillus larvae; conditions: 1, 1.5 and 2 mM; all time points (6, 12, 18, 24 hours); p<0.05
Description: FIGS. 6A-6D are graphs plotting the inhibition activity of 5-chloroindole on P. larvae cells. P. larvae cells were grown in medium containing different concentrations of 5-chloroindole, and cellular growth was monitored over a 24 hour period. Graphs are shown for 6 hours (FIG. 6A), 12 hours (FIG. 6B), 18 hours (FIG. 6C), and 24 hours (FIG. 6D). Asterisks denote significant differences from the growth of medium control (Analysis of Variance, Log-rank test, p<0.05).
5-Chloroindole was then tested in vitro, using P. larvae cells or spores. P. larvae cells were grown in medium containing different concentrations of DMSO, complex medium (MYPGP), or 0.5 to 2 mM 5-chloroindole, and cellular growth was monitored over a 24 hour period.

P. larvae spores [2] = test: Growth from P. larvae spores in medium containing 5-chloroindole; format: cell-based, Paenibacillus larvae
Description: FIGS. 7A-7D are graphs plotting the inhibition activity of 5-chloroindole on P. larvae spores. P. larvae spores were grown in medium containing different concentrations of 5-chloroindole. Growth was monitored over a 24 hour period; plots are shown for 6 hours (FIG. 7A), 12 hours (FIG. 7B), 18 hours (FIG. 7C), and 24 hours (FIG. 7D). Asterisks denote significant differences from the growth of medium control (Analysis of Variance, Log-rank test, p<0.05).
P. larvae spores were grown in medium containing different concentrations of DMSO, complex medium (MYPGP), or 0.5 to 2 mM 5-chloroindole, and cellular growth was monitored over a 24 hour period.

[3] = system: honey bee larvae contacted with P. larvae spores; test: Survival of honey bee larvae fed diet with indole analogs and P. larvae spores; format: in vivo
Description: First instar honey bee larvae were obtained from two colonies headed by naturally mated queens (Honey Bee Genetics, Vacaville Calif.). Queens were trapped on empty frames within a cage constructed with queen excluder. Worker bees can fit through the excluder but the queen cannot exit the cage. The frame was placed within the brood chamber to stimulate egg laying by the queen overnight. Eggs were incubated in the hive for 4 days to allow newly hatched larvae to be fed by nurse bees. First instar honey bee larvae were brought into the laboratory and stored in a 35° C. 85% relative humidity chamber before grafting.
Sterile six well plates with a well volume of 17.0 ml were filled with 2.5 ml of pre-warmed artificial worker jelly. Honey bee larvae were transferred into each well using the thin tongue made of flexible plastic from a Chinese grafting tool. The plastic grafting tool was decontaminated with 70% ethanol throughout usage. Grafting was performed in the sterile environment of a honey bee laboratory, and honey bee larvae were then transferred to a bacterial spore laboratory for control and spore exposure treatments.
Artificial worker jelly was prepared using a lyophilized royal jelly, D-glucose, D-fructose, yeast extract, and autoclaved double distilled water. Ingredients minus lyophilized royal jelly were dissolved in autoclaved double distilled water. Lyophilized royal jelly was added to this sugar-yeast extract solution and mixed thoroughly with a vortex mixer. Artificial diet was prepared an hour prior to use for larval rearing. To reduce the development of worker-queen hybrids because of nutrition, the composition and amounts of artificial worker jelly were controlled in every larval stage.
Honey bee larvae were incubated in an air tight plastic container placed inside an incubator. The desired relative humidity (95%) and temperature (35° C.) was verified with an iButton data logger (Maxim Integrated; San Jose, Calif.). The appropriate relative humidity was obtained by placing a solution of 20% glycerol by weight. The plastic containers were was decontaminated throughout usage with detergent, 70% ethanol, and treated with an ultraviolet lamp overnight.
Feeding of diets was performed daily in different amounts according to Table 2. The amount of diet consumed by larvae was assumed based on published literature. A micropipette was used to place a food drop next to the mouth of the larvae. Drowning was avoided by maintaining the appropriate humidity and water content of diet. Forty first and second instar larvae were placed into one well of a six well plate. Third instar larvae were transferred individually to 48 well plates filled with fresh food.
Larval survival was determined daily by observing signs of respiration, disease symptoms, and other abnormalities with a stereo microscope. The number of dead larvae was recorded, and surviving larvae were fed fresh food. The start of pupation was indicated by the appearance of uric acid crystals and light yellow excretions in the remaining food.
The larval survival data was analyzed using the LogRank test in SigmaPlot.

P. larvae spores [4] = test: Determination of germinants / agonists of P. larvae spore germination (OD580 decrease); format: cell-based, Paenibacillus larvae subsp. pulvifaciens strain ATCC 49843; conditions: 3 mM amino acid or analog plus 3 mM uric acid
Description: (§1) The decrease in optical density is proportional to spore germination (Powell, J. Gen. Microbiol., 4:330-338, 1950). Changes in light diffraction during spore germination were monitored at 580 nm (OD580) on a Biomate 5 (ThermoElectron Corporation, Waltham, Mass.) or a Tecan Infinite m200 (Tecan group, Männedorf, Switzerland) spectrophotometer. Experiments were carried out in 96-well plates (200 μL/well). In preparation for germination assays, P. larvae spore suspensions were washed three times with water. Spores were then heat activated at 70° C. for 30 minutes. The heat-activated spores were allowed to reach room temperature and transferred to 0.1 M sodium phosphate buffer (pH 7.0) to an approximate OD580 of 0.70. Spores were monitored for auto-germination for 30 minutes. […] Putative germinants were added individually or in combinations to a final concentration of 3 mM. Experiments were performed in triplicate with at least two different spore preparations. After germinant addition, OD580 of the spore suspension was measured every minute for an hour. Relative OD values were derived by dividing each OD580 reading by the initial OD580. Spore germination rates (v) were calculated from the initial linear decrease in relative OD (Akoachere et al., supra). Germination rates were set to 100% for P. larvae spores that had the fastest germination rate in an assay. Germination rates for other conditions were divided by the maximum germination rate for that assay and are reported as percent germination. Standard deviations were calculated from at least six independent measurements and are typically below 10%. Spore germination was confirmed in selected samples by microscope observation of Schaeffer-Fulton stained aliquots (Schaeffer and Fulton, supra).
To test for possible agonists of P. larvae spore germination, spores were individually supplemented with 3 mM of a purine analog and 3 mM L-tyrosine. Separately, P. larvae spores were incubated with 3 mM of an amino acid analog and 3 mM uric acid. Spore germination was monitored as described above. […]

P. larvae spores [5] = test: Antagonists of P. larvae spore germination, 3 mM (Example 1); format: cell-based, Paenibacillus larvae subsp. pulvifaciens strain ATCC 49843; conditions: 3 mM analog, 15 minutes, then 3 mM L-tyrosine/3 mM uric acid
Description: as §1
To test for possible antagonists of P. larvae spore germination, spores were individually supplemented with 3 mM of a purine analog or 3 mM of an amino acid analog. […] If no germination was detected, L-tyrosine and uric acid were added to 3 mM final concentrations, and germination was monitored as described above. […]

P. larvae spores [6] = test: Inhibition of P. larvae spore germination by indole and phenol, IC50 titration (Example 1); format: cell-based, Paenibacillus larvae subsp. pulvifaciens strain ATCC 49843; conditions: Paenibacillus larvae
Description: as §1, with “Standard deviations were calculated from at least six independent measurements and are typically below 10%.” left out
After 15 minutes of incubation, spores were treated with 3 mM L-tyrosine/3 mM uric acid. The germination rate was set to 100% for P. larvae spores germinated in the absence of inhibitor. Germination rates for other conditions were divided by the uninhibited maximum germination rate obtained with 3 mM L-tyrosine/3 mM uric acid, and are reported as percent germination. Percent germination was plotted against inhibitor concentrations. The resulting sigmoidal curves were fitted using the four parameter logistic function in SigmaPlot v.9 to calculate IC50 values.

[7] = system: P. larvae subsp. larvae spores; format: cell-based, Paenibacillus larvae subsp. larvae
Source text: Chemicals were purchased from Sigma Aldrich Corporation (St. Louis, Mo.). Dehydrated culture media was purchased from BD Difco (Franklin Lakes, N.J.). Paenibacillus larvae subsp. pulvifaciens strain ATCC 49843 was purchased from the […] (ATCC). Environmental American Foulbrood scales (the remains of infected larvae collected from infected hives) were kindly donated by Dr. Jay D. Evans at the USDA Bee Research Facility in Beltsville, Md.
To test the generality of P. larvae spore response, spores were prepared from P. larvae subsp. pulvifaciens strain ATCC 49843, and also from an environmental AFB sample.

P. larvae spores [8] = test: Activation of P. larvae spore germination by L-tyrosine and uric acid (titration); format: cell-based, Paenibacillus larvae subsp. pulvifaciens strain ATCC 49843; conditions: Paenibacillus larvae
Description: The decrease in optical density is proportional to spore germination (Powell, J. Gen. Microbiol., 4:330-338, 1950). Changes in light diffraction during spore germination were monitored at 580 nm (OD580) on a Biomate 5 (ThermoElectron Corporation, Waltham, Mass.) or a Tecan Infinite m200 (Tecan group, Männedorf, Switzerland) spectrophotometer. Experiments were carried out in 96-well plates (200 μL/well). In preparation for germination assays, P. larvae spore suspensions were washed three times with water. Spores were then heat activated at 70° C. for 30 minutes. The heat-activated spores were allowed to reach room temperature and transferred to 0.1 M sodium phosphate buffer (pH 7.0) to an approximate OD580 of 0.70. Spores were monitored for auto-germination for 30 minutes. […] After germinant addition, OD580 of the spore suspension was measured every minute for an hour. Relative OD values were derived by dividing each OD580 reading by the initial OD580. Spore germination rates (v) were calculated from the initial linear decrease in relative OD (Akoachere et al., supra). […] Standard deviations were calculated from at least six independent measurements and are typically below 10%. […]
P. larvae spore germination was tested with different combinations of L-tyrosine and uric acid. […] Germination rates were determined as above. […]

[9] = environmental P. larvae subsp. larvae compared with strain ATCC 49843

## Clc1ccc2[nH]ccc2c1 [5-chloroindole]
P. larvae spores [1]; Table 2, saturating uric acid/L-tyrosine concentrations, read-out: IC50
  IC50: 30 ± 10 µM
P. larvae cells
  inhibition of P. larvae cell growth vs medium control: significantly inhibited
P. larvae spores [2]; 0.5 to 2 mM, 6 hours
  effect on growth from P. larvae spores vs medium control, 6 hours: no significant effect
P. larvae spores [2]; all concentrations (0.5 to 2 mM), 18 and 24 hours, p<0.05
  effect on growth from P. larvae spores vs medium control, 18 and 24 hours: significantly inhibited
[3]; 0.125 mM to 1 mM in larval diet (wj) plus P. larvae spores, p<0.001
  concentration dependence of increase in larval survival: directly correlated to its concentration
[3]; 0.5 mM in larval diet (wj) plus P. larvae spores
  ranking of effect on larval survival among analogs: greatest effect
[3]; 0.5 mM in larval diet (wj) plus P. larvae spores, 7-day development, p<0.002
  survival of honey bee larvae vs P. larvae spores alone: increased survival

## N[C@H](Cc1ccc(O)cc1)C(=O)O [D-tyrosine, reference compound]
P. larvae spores [4]
  germination response as co-germinant with uric acid: none of the compounds tested was able to activate
P. larvae spores [5]
  inhibition of uric acid/L-tyrosine-induced germination: did not inhibit

## c1ccc2[nH]ccc2c1 [Indole]
P. larvae spores [5]
  inhibition of uric acid/L-tyrosine-induced germination: able to inhibit
P. larvae spores [6]
  IC50: 330 µM
P. larvae spores [6]; read-out: IC50 inhibition of P. larvae spore germination
  IC50: 370 µM
[7]; [9]
  inhibition of germination, both P. larvae sub-species: similarly inhibited
P. larvae spores [1]
  IC50: 370 ± 20 µM
P. larvae spores [1]; read-out: IC50 inhibition of P. larvae spore germination (previously shown)
  IC50: 400 µM

## N[C@@H](Cc1ccc(O)cc1)C(=O)O [L-tyrosine]
P. larvae spores [4]
  germination response as co-germinant with uric acid: strong germination response
P. larvae spores [8]; read-out: EC50 for L-tyrosine activation of P. larvae spore germination
  EC50: 1200 µM
[7]; [9]
  germination response to L-tyrosine and uric acid, both P. larvae sub-species: responded identically

## Oc1ccccc1 [Phenol]
P. larvae spores [4]
  germination response as co-germinant with uric acid: none of the compounds tested was able to activate
P. larvae spores [5]
  inhibition of uric acid/L-tyrosine-induced germination: able to inhibit
[7]
  inhibition of germination, both P. larvae sub-species: similarly inhibited

## O=c1[nH]c(=O)c2[nH]c(=O)[nH]c2[nH]1 [uric acid, reference compound]
P. larvae spores [8]; titration of uric acid at saturating L-tyrosine concentration (3 mM), read-out: EC50 for uric acid activation of P. larvae spore germination
  EC50: 200 µM
[7]; [9]
  germination response to L-tyrosine and uric acid, both P. larvae sub-species: responded identically
